Data reported in publication PMC12567096, “An Efficacy- and In Vivo Exposure-Oriented Integrated Study to Investigate the Effective Components of Qishen Granule” (Pharmaceuticals, 2025).

Columns and labels:
[1] = Pharmacokinetic study in rats after oral administration of QSG; details: for AUCi: exposure (AUC0→∞) of the component in rats after oral QSG, as used for ECI; for Oral relative bioavailability: exposure level (AUC0→∞) compared with the dosage of each compound in QSG; for Absorption efficiency / bioavailability (in words): from Table S12, rats
Procedure: Ion source parameters were set as follows: temperatures of drying gas and sheath gas were 300 °C and 300 °C, flow rates of drying gas and sheath gas were 7 L/min and 11 L/min, the nebulizer was set at 35 psig, capillary voltage was 3500 V (−), and nozzle voltage was 2000 V (−). […] Chromatographic separations were conducted on a ZORBAX Eclipse Plus C18 column (3.0 × 50 mm, 1.8 μm, Agilent Technologies, California, USA). The mobile phase was composed of 0.1% aqueous FA (A, (v/v)) and 0.1% formic acid methanol (B), the flow rate was set at 0.5 mL/min, and the column oven was maintained at 40 °C.
Protein precipitation was carried out for each time point for plasma samples, calibration samples, or QC samples by introducing four volumes of acetonitrile containing 400 ng/mL of icariin. Then, 10 μL 10% aqueous ascorbic acid (v/v) was spiked into each sample to prevent the oxidation of phenolic compounds. […] An aliquot (450 μL) of the supernatant was transferred and dried under nitrogen vacuum.
The pharmacokinetic parameters were calculated by DAS software (version 2.0) for a non-compartmental analysis.

OGD/R-induced H9c2 cells = assay: Protective effect on OGD/R-induced H9c2 cells (CCK-8 cell viability); type: cell-based, rat; details: for H9c2 cell survival after OGD/R (in words): 1, 10, 25, 50 and 100 μM prior to OGD/R, vs model group; for EC50: protective effect against OGD/R injury, H9c2 cell viability
Procedure: (§1) Rat myocardial H9c2 cells (purchased from China Infrastructure of Cell Line Resources, Institute of Basic Medical Sciences, Chinese Academy of Medical Sciences) were cultured in DMEM supplemented with 10% fetal bovine serum (FBS), Penicillin (100 U/mL), and Streptomycin (100 μg/mL) at 37 °C under a humidified atmosphere of 5% CO2 and 95% air. For OGD/R treatment, H9c2 cells were cultured in glucose-free DMEM under hypoxic conditions (95%N2 + 5%CO2) for 4 h at 37 °C followed by complete medium under normal conditions with air (95%) and CO2 (5%) for 2 h. A control group was maintained under normal culture conditions (with glucose-containing DMEM and 5% CO2) without undergoing OGD/R treatment. CCK8 was used to assess cell viability. After treatment, H9c2 cells were seeded in 96-well plates, with each well supplemented with 10 μL of CCK-8 solution and then incubated for 1 h. Finally, the absorbance at 450 nm was detected by a microplate reader (Model […] 200 PRO, TECAN, Grodig, Austria).
(§2) When evaluating the cytotoxicities of the absorbed compounds, the H9c2 cells were seeded in 96-well plates at a density of 1 × 10^4 cells/well; when cells reached 80% confluence, they were treated with 25 and 50 μM of the 24 analytes to screen the non-toxic concentration ranges. Afterward, the protective effects were verified by assessing the cell viability when treating with different concentrations (1, 10, 25, 50, and 100 μM) of the analytes prior to OGD/R treatment.

[2] = Concentrations of 24 analytes in QSG treated plasma (Table S5); details: for Concentration: QSG treated plasma, n = 5
H9c2 cells = assay: Cytotoxicity on H9c2 cells (CCK-8); type: cell-based, rat
Procedure: as §1
as §2, with “they were treated with 25 and 50 μM of the 24 analytes to screen the non-toxic concentration ranges.” left out

[3] = rat plasma, single oral 7 g/kg QSG, n = 6
[4] = Sprague Dawley, rat, plasma, po, 7 g/kg
[5] = Sprague Dawley, rat, plasma, oral, 7 g/kg

Row | Compound | AUC0→∞ ([1]; Table S12, rats, oral QSG) [ng·h/mL] | AUCi [1] | Oral relative bioavailability [1] [%] | Absorption efficiency / bioavailability (in words) ([1]; oral QSG) | AUC0→t [1, 3] [ng·h/mL] | AUC0→∞ [1, 3] [ng·h/mL] | Cmax [1, 3] [ng/mL] | MRT [1, 3] [h] | T1/2 [1, 3] [h] | Tmax [1, 3] [h] | H9c2 cell survival after OGD/R (in words) (OGD/R-induced H9c2 cells) | Concentration ([2]; 0.17 h) [ng/mL] | Concentration ([2]; 0.5 h) [ng/mL] | Concentration ([2]; 1 h) [ng/mL] | Concentration ([2]; 2 h) [ng/mL] | Concentration ([2]; 4 h) [ng/mL] | Concentration ([2]; 8 h) [ng/mL] | Concentration ([2]; 12 h) [ng/mL] | Inhibition rate (H9c2 cells; 25 μM, H9c2 cells, n=3) [%] | Inhibition rate (H9c2 cells; 50 μM, H9c2 cells, n=3) [%] | further results
1 | CC(C)(O)[C@@H]1CC[C@](C)([C@H]2[C@@H](O)C[C@@]3(C)[C@@H]4C[C@H](O[C@@H]5O[C@H](CO)[C@@H](O)[C@H](O)[C@H]5O)[C@H]5C(C)(C)[C@@H](O[C@@H]6OC[C@@H](O)[C@H](O)[C@H]6O)CC[C@@]56C[C@@]46CC[C@]23C)O1 [Astragaloside IV] | 144.9 | 144.9 | 0.107 | relatively higher absorption efficiency | 55.94 ± 26.16 | 144.9 ± 101.2 | 12.06 ± 2.010 | 6.104 ± 3.716 | 14.87 ± 9.060 | 0.250 ± 0.0920 | significantly improve H9c2 cell survival rates | 7.10 ± 5.941 | 8.655 ± 2.757 | 3.017 ± 3.507 | 3.783 ± 2.015 | 0.710 ± 1.991 | 1.337 ± 1.728 | 2.200 ± 2.015 | -6.7 ± 7.1 | 7.0 ± 2.1 | Shape of the plasma concentration–time curve (in words) ([1]; rats, oral QSG): Double peaks; Protective effects on OGD/R-induced H9c2 cells (in words) (OGD/R-induced H9c2 cells; at 50 and 100 μM): significant protective effects; Inhibition rate (H9c2 cells; 100 μM, H9c2 cells, n=3): 15.0 ± 2.3%
2 | O=C(/C=C/c1ccc(O)c(O)c1)O[C@@H]1C[C@](O)(C(=O)O)C[C@@H](O)[C@H]1O [Chlorogenic acid] | – | – | – | – | 1278 ± 171.4 | – | 394.1 ± 6.271 | – | – | – | significantly improve H9c2 cell survival rates | – | – | – | – | – | – | – | – | – | AUC [1, 4]: 1420 ng·h/mL; MRT [1, 4]: 7.18 ± 0.978 h; Tmax [1, 4]: 0.563 ± 0.125 h; half-life [1, 4]: 9.22 ± 3.27 h; AUC(0-inf) ([1]; Sprague Dawley, rat, plasma, po, 7 g/kg, AUC0→∞, rat plasma, single oral 7 g/kg QSG, n = 6): 1420 ± 243 ng·h/mL; EC50 (OGD/R-induced H9c2 cells; Rattus norvegicus): 8.6 µM; concentration at 0.08 h [2, 5]: 66.2 ± 20.1 ng/mL; concentration at 0.17 h [2, 5]: 99.06 ± 0.162 ng/mL; concentration at 0.5 h [2, 5]: 395 ± 7.1 ng/mL; concentration at 1 h [2, 5]: 170 ± 35.7 ng/mL; concentration at 2 h [2, 5]: 77.2 ± 7.26 ng/mL; concentration at 4 h [2, 5]: 68.1 ± 21 ng/mL; concentration at 8 h [2, 5]: 51.4 ± 5.49 ng/mL; concentration at 12 h [2, 5]: 39.1 ± 14.9 ng/mL; inhibition at 25 µM (H9c2 cells; Rattus norvegicus, 25 μM, H9c2 cells, n=3, read-out: Inhibition rate): -1.6 ± 4.9%; inhibition at 50 µM (H9c2 cells; Rattus norvegicus, 50 μM, H9c2 cells, n=3, read-out: Inhibition rate): 12 ± 1.7%; inhibition at 100 µM (H9c2 cells; Rattus norvegicus, 100 μM, H9c2 cells, n=3, read-out: Inhibition rate): 15 ± 4.1%
3 | O=C(/C=C/c1ccc(O)c(O)c1)O[C@H]1[C@H](O)C[C@](O)(C(=O)O)C[C@H]1O [Cryptochlorogenic acid] | 576.2 | 576.2 | 0.026 | relatively higher absorption rates | 532.2 ± 41.45 | 576.2 ± 58.15 | 184.1 ± 57.43 | 8.933 ± 0.5290 | 10.84 ± 2.625 | 0.364 ± 0.076 | significantly improve H9c2 cell survival rates | 95.627 ± 23.461 | 135.955 ± 20.918 | 54.572 ± 22.599 | 29.505 ± 18.460 | 18.424 ± 6.281 | 21.857 ± 6.099 | 12.189 ± 3.932 | -16.2 ± 4.2 | -3.4 ± 0.2 | EC50 (OGD/R-induced H9c2 cells): 1.13 µM; Concentration ([2]; 0.08 h): 17.855 ± 11.504 ng/mL; Inhibition rate (H9c2 cells; 100 μM, H9c2 cells, n=3): 5.2 ± 0.4%; Effect on H9c2 cell viability / cytotoxicity (in words) (H9c2 cells; CCK-8, compared to the control group): significantly enhanced cell viabilities
